Assays:
AXIN1 = test: Immunoblot of steady-state AXIN1 levels in melanoma cells; assay type: cell-based, human
ppERK1/2 = test: Capillary-based isoelectric focusing of ppERK1/2 in fine needle aspirates of xenograft tumors; assay type: in vivo, mouse; conditions: two hours after initial 50 mg/kg PLX4720 vs baseline
Experimental: FIG. 10A depicts a schematic representation of the capillary-based isoelectric focusing method of detecting levels of ppERK1/2 in fine needle aspirates of xenograft tumors from vehicle or PLX4720 treated mice (top panel). Fine needle aspiration procedures (FNA) were performed on xenograft tumors three days prior to treatment for baseline samples and 2 hours after the initial oral gavage treatment of 50 mg/kg PLX4720. FNAs were analyzed for ppERK1/2 and HSP70 for normalization by capillary-based isoelectric focusing on a Nanopro1000 instrument (Cell Biosciences)(bottom panel). […] FNAs of xenograft tumors three days before treatment (baseline) or two hours following the initial treatment of 50 mg/kg PLX4720 were analyzed for ppERK1/2 and normalized to levels of HSP70. Columns and error bars represent the mean and standard deviation, respectively, from three xenograft tumors. […] FIG. 10D is a graph of results from an experiment in which xenograft tumors from FIG. 2A were sectioned, stained with hematoxylin- and eosin, and analyzed for mitotic cells by microscopy under high-power as described elsewhere herein. […]
Xenograft assays. […] Tumor size was determined by caliper measurements of tumor length and width every 3 to 4 days. Tumor volume was then calculated using the following formula: volume=(width)^2×length/2. […]

COLO829 = test: Flow cytometry for active (cleaved) caspase-3, COLO829; assay type: cell-based, human; conditions: WNT3A, 2 μM PLX4720, 24 hours
Experimental: Flow cytometry for Active Caspase-3. Cells were seeded in a 6-well dish at a density to achieve 90-100% confluence at harvest. 24 hours after seeding, cells were treated with the indicated conditions for the indicated amount of time. At the time of collection, supernatants were collected and pooled with trypsinized cells. Cells were fixed with 4% paraformaldehyde and permeabilized according to vendor's protocol for Cleaved Caspase-3 (Asp175) Antibody (AlexaFluor 488 Conjugate) (catalog #9669) (Cell Signaling, Beverly Mass.). The antibody was used at a final dilution of 1:100. Flow was performed on a BD FACSCanto H, and data analysed with FlowJo 8.8.6 (Tree Star) software. Experiments were performed with biological triplicates and data are representative of at least three independent experiments. For experiments involving siRNAs, cells were reverse transfected with 20 nM siRNA in 6-well dishes in triplicate with RNAiMax according to manufacturer's protocol. 48 hours following transfection, cells were treated with the indicated conditions for 24 hours and then harvested for analysis. Cells were harvested, stained, and analyzed as described above.

[1] = tested on: human A375 melanoma cells grown as xenografts; test: Xenograft assay, A375:GFP or A375:WNT3A tumors in NSG mice; assay type: in vivo, mouse; conditions: 50 mg/kg PLX4720 oral gavage once daily
Experimental: Xenograft assays. NSG (NOD/SCID/IL2r-gamma (null)) mice were injected with 5×10^5 A375 cells stably expressing GFP or 5×10^5 A375 cells stably expressing WNT3A-IRES-GFP. Tumors were allowed to establish to approximately 100 mm^3, after which mice where tumor size-matched and allocated to five per treatment group (vehicle or PLX4720). WNT3A-IRES-GFP tumors grew slower and therefore the first day of treatment was day 14 while GFP expressing tumors were first treated on day 9. Treatment was by oral gavage once daily with 5% DMSO in 1% carboxymethyl cellulose or 50 mg/kg PLX4720 in 1% carboxymethyl cellulose (604 mM PLX4720 in DMSO was diluted 1:20 in 1% carboxymethylcellulose). Tumor size was determined by caliper measurements of tumor length and width every 3 to 4 days. Tumor volume was then calculated using the following formula: volume=(width)^2×length/2. Tumors were harvested 2 hours after the last dose and fixed in neutral-buffered formalin overnight at room temperature.

MEL624 = test: qPCR of endogenous Wnt target gene AXIN2, MEL624; assay type: cell-based, human; conditions: WNT3A CM, 2 μM PLX4720, 24 hours
Source text: RNA purification and qRT-PCR analysis. RNA was purified using the RNeasy kit following the manufacturer's protocol (Qiagen; Maryland, Md.). cDNA was synthesized using RevertAid™ M-MuLV Reverse Transcriptase (Fermentas; Ontario, CAN). Light Cycler FastStart DNA Master SYBR Green1 (Roche; Mannheim, Germany) was used for real-time PCR as previously described (53). Quantitative PCR results presented in the manuscript are averages of a minimum of three biologic replicates.

A375 cells = test: Spheroid assay in three-dimensional collagen matrix; assay type: cell-based, human
Experimental: Spheroid Assay. A375 cells were used for the spheroid assays. Spheroids were formed and implanted in collagen as previously described (54). Spheroids were treated with indicated conditions 30 minutes after collagen polymerization. Images were obtained on a Nikon TiE inverted widefield high-resolution microscope (Nikon Melville, N.Y.).

ERK1/2 phosphorylation = ERK1/2 phosphorylation in human epidermal melanocytes; assay type: cell-based; conditions: HEMs
Source text: Cell Lines. The human melanoma cell lines A375, A2058 and Me1624 were obtained from Cassian Yee (Fred Hutchinson Cancer Research Institute; Seattle, Wash.). The human melanoma cell lines COLO-829, SKMEL28, SKMEL5 were purchased from ATCC (Manassas, Va.). Human Epidermal Melanocytes, adult, lightly pigmented donor, (HEMa-LP) (C0245C) were purchased from Invitrogen (Carlsbad, Calif.). Stable BAR cell lines were generated as previously described (23). BAR luciferase cell lines were also infected with a lentivirus carrying Renilla luciferase driven by a constitutive EFlalpha promoter.
Cell Culture. The human melanoma lines A375, A2058 were cultured in DMEM supplemented with 5% FBS and 1% antibiotic. The human melanoma lines SK-MEL-5 and SK-MEL-28 were grown in EMEM supplemented with 10% FBS and 1% antibiotic. The human melanoma lines COLO-829 and MEL-624 were grown in RPMI supplemented with 10% FBS and 1% antibiotic HEMa-LP cells were cultured in medium 254 supplemented with 1% HMGS and 1% antibiotic (Invitrogen Carlsbad, Calif.). Synthetic siRNAs were transfected into cultured cells at a final concentration of 20 nM using RNAiMAX (Invitrogen; Grand Island, N.Y.).

[2] = A375, WNT3A and PLX4720 time course

CCCS(=O)(=O)Nc1ccc(F)c(C(=O)c2c[nH]c3ncc(Cl)cc23)c1F [PLX4720, N-[3-[(5-Chloro-1H-pyrrolo[2,3-b]pyridin-3-yl)carbonyl]-2,4-difluorophenyl]-1-propanesulfonamide]
steady-state levels of AXIN1 (AXIN1; A375, Mel624, and COLO829, WNT3A plus 2 μM PLX4720 vs WNT3A alone, 24 hours): markedly reduced | time after which almost no detectable AXIN1 remained (AXIN1; [2]): 16 to 20 h | time to rapid decrease in steady-state levels of AXIN1 (AXIN1; [2]): 1 to 2 h | steady-state AXIN1 levels (AXIN1; SKMEL5, SKMEL28 and A2058, WNT3A plus 2 μM PLX4720 vs WNT3A alone, 24 hours): did not significantly decrease | steady-state levels of AXIN1 (AXIN1; absence of rWnt3A): slightly decreased | steady-state levels of AXIN1 (AXIN1; presence of rWnt3A): markedly diminished | ppERK2 in xenograft tumors (normalized to HSP70) (ppERK1/2): significantly less ppERK2 | SYNERGISTIC APOPTOSIS WITH WNT AND PLX4720? (COLO829): YES | tumor growth ([1]; A375:GFP tumors): decreased tumor growth compared to drug vehicle | tumor growth ([1]; A375:WNT3A tumors, over four weeks): near complete suppression | SYNERGISTIC WNT ACTIVATION WITH PLX4720? (MEL624): YES | spheroid size (A375 cells; A375:GFP- and A375:WNT3A-derived spheroids, 2 μM PLX4720, 72 hours): decreased spheroid size | dead cells (EtBr staining) (A375 cells; spheroids expressing WNT3A, 2 μM PLX4720, 24 hours): detection of dead cells | number of invasive cells (A375 cells; spheroids expressing WNT3A, 2 μM PLX4720, 72 hours): dramatic decrease in the number of invasive cells | ERK1/2 phosphorylation (ERK1/2 phosphorylation): no effect
